# Tests used:
# Type in all cases: in vivo
# [1] = system: Echinochloa crus-galli; assay: Pre-emergence herbicidal action against ECHCG; details: visual score after 3 weeks vs untreated controls
# How it was run: (§1)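 Seeds sown in sandy loam, soil-covered; compound sprayed on soil surface pre-emergence. Application: WP/EC, 600–800 l/ha, 0.2% wetting agent. Readout: visual % damage at 3 weeks.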
# [2] = system: Amaranthus retroflexus; assay: Pre-emergence herbicidal action against AMARE; details: visual score after 3 weeks vs untreated controls
# How it was run: as §1
# [3] = system: Setaria viridis; assay: Pre-emergence herbicidal action against SETVI
# How it was run: as §1
# [4] = system: Avena fatua; assay: Pre-emergence herbicidal action against AVEFA; details: visual score after 3 weeks vs untreated controls
# How it was run: as §1
# [5] = system: Hordeum murinum; assay: Post-emergence herbicidal action against HORMU
# How it was run: (§2)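 Sandy loam, greenhouse; treatment 2–3 weeks after sowing, one-leaf stage. Aqueous suspension or emulsion from WP/EC sprayed on foliage (600–800 l/ha, 0.2% wetting agent). Readout: visual % action, ~3 weeks.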
# [6] = system: Avena fatua; assay: Post-emergence herbicidal action against AVEFA; details: visual assessment about 3 weeks after treatment
# How it was run: as §2
# [7] = system: Alopecurus myosuroides; assay: Pre-emergence herbicidal action against ALOMY; details: visual score after 3 weeks vs untreated controls
# How it was run: as §1
# [8] = system: Pharbitis purpurea; assay: Post-emergence herbicidal action against PHBPU; details: visual assessment about 3 weeks after treatment
# How it was run: as §2
# [9] = system: Abutilon theophrasti; assay: Pre-emergence herbicidal action against ABUTH; details: visual score after 3 weeks vs untreated controls
# How it was run: as §1
# [10] = system: Stellaria media; assay: Pre-emergence herbicidal action against STEME
# How it was run: as §1
# [11] = system: Pharbitis purpurea; assay: Pre-emergence herbicidal action against PHBPU; details: visual score after 3 weeks vs untreated controls
# How it was run: as §1
# [12] = system: Veronica persica; assay: Post-emergence herbicidal action against VERPE; details: 80 g/ha, visual assessment about 3 weeks after treatment
# How it was run: as §2
# [13] = system: Polygonum convolvulus; assay: Post-emergence herbicidal action against POLCO; details: 80 g/ha, visual assessment about 3 weeks after treatment
# How it was run: as §2
# [14] = system: Lolium rigidum; assay: Pre-emergence herbicidal action against LOLRI; details: 320 g/ha
# How it was run: as §1
# [15] = system: Echinochloa crus-galli; assay: Post-emergence herbicidal action against ECHCG; details: visual assessment about 3 weeks after treatment
# How it was run: as §2
# [16] = system: Cyperus esculentus; assay: Pre-emergence herbicidal action against CYPES; details: visual score after 3 weeks vs untreated controls
# How it was run: as §1
# [17] = system: Matricaria inodora; assay: Pre-emergence herbicidal action against MATIN; details: visual score after 3 weeks vs untreated controls
# How it was run: as §1
# [18] = system: Hordeum murinum; assay: Pre-emergence herbicidal action against HORMU; details: visual score after 3 weeks vs untreated controls
# How it was run: as §1
# [19] = system: Stellaria media; assay: Post-emergence herbicidal action against STEME; details: visual assessment about 3 weeks after treatment
# How it was run: as §2
# [20] = system: Polygonum convolvulus; assay: Pre-emergence herbicidal action against POLCO; details: 320 g/ha
# How it was run: as §1
# [21] = system: Alopecurus myosuroides; assay: Post-emergence herbicidal action against ALOMY
# How it was run: as §2
# [22] = system: Lolium rigidum; assay: Post-emergence herbicidal action against LOLRI
# How it was run: as §2
# [23] = system: Viola tricolor; assay: Pre-emergence herbicidal action against VIOTR
# How it was run: as §1
# [24] = system: Abutilon theophrasti; assay: Post-emergence herbicidal action against ABUTH
# How it was run: as §2
# [25] = system: Viola tricolor; assay: Post-emergence herbicidal action against VIOTR
# How it was run: as §2
# [26] = system: Cyperus esculentus; assay: Post-emergence herbicidal action against CYPES; details: 80 g/ha, visual assessment about 3 weeks after treatment
# How it was run: as §2
# [27] = system: Amaranthus retroflexus; assay: Post-emergence herbicidal action against AMARE; details: visual assessment about 3 weeks after treatment
# How it was run: as §2
# [28] = system: Matricaria inodora; assay: Post-emergence herbicidal action against MATIN; details: visual assessment about 3 weeks after treatment
# How it was run: as §2
# [29] = system: Setaria viridis; assay: Post-emergence herbicidal action against SETVI; details: visual assessment about 3 weeks after treatment
# How it was run: as §2
# [30] = system: Veronica persica; assay: Pre-emergence herbicidal action against VERPE; details: 320 g/ha
# How it was run: as §1
structure (smiles),measurement,setting,value
CCN(C)C(=O)c1c(C(F)(F)F)ccc(C(=O)Nc2nnnn2CC)c1Cl [Example 2-124],Pre-emergence action against ECHCG,[1]; 80 g/ha,90%
same,Pre-emergence action against ECHCG,[1]; 320 g/ha,100%
same,Pre-emergence action against AMARE,[2]; 20 g/ha,90%
same,Pre-emergence action against AMARE,[2]; 80 g/ha,100%
same,Pre-emergence action against AMARE,[2]; 320 g/ha,100%
same,Pre-emergence action against SETVI,[3]; 20 g/ha,90%
same,Pre-emergence action against SETVI,[3]; 80 g/ha,100%
same,Pre-emergence action against SETVI,[3]; 320 g/ha,100%
same,Pre-emergence action against AVEFA,[4]; 80 g/ha,90%
same,Pre-emergence action against AVEFA,[4]; 320 g/ha,100%
same,Post-emergence action against HORMU in %,[5]; 20 g/ha,90%
same,Post-emergence action against HORMU in %,[5]; 80 g/ha,100%
same,Post-emergence action against AVEFA in %,[6]; 5 g/ha,80%
same,Post-emergence action against AVEFA in %,[6]; 20 g/ha,100%
same,Post-emergence action against AVEFA in %,[6]; 80 g/ha,100%
same,Pre-emergence action against ALOMY,[7]; 80 g/ha,80%
same,Pre-emergence action against ALOMY,[7]; 320 g/ha,90%
same,Post-emergence action against PHBPU in %,[8]; 5 g/ha,80%
same,Post-emergence action against PHBPU in %,[8]; 20 g/ha,90%
same,Post-emergence action against PHBPU in %,[8]; 80 g/ha,90%
same,Pre-emergence action against ABUTH,[9]; 20 g/ha,100%
same,Pre-emergence action against ABUTH,[9]; 80 g/ha,100%
same,Pre-emergence action against ABUTH,[9]; Dosage column 320 g/ha (heading prints 3200 g/ha),100%
same,Pre-emergence action against STEME,[10]; 20 g/ha,90%
same,Pre-emergence action against STEME,[10]; 80 g/ha,90%
same,Pre-emergence action against STEME,[10]; 320 g/ha,90%
same,Pre-emergence action against PHBPU,[11]; 80 g/ha,80%
same,Pre-emergence action against PHBPU,[11]; 320 g/ha,90%
same,Post-emergence action against VERPE in %,[12],100%
same,Post-emergence action against POLCO in %,[13],100%
same,Pre-emergence action against LOLRI,[14],90%
same,Post-emergence action against ECHCG in %,[15]; 20 g/ha,100%
same,Post-emergence action against ECHCG in %,[15]; 80 g/ha,100%
same,Pre-emergence action against CYPES,[16]; 20 g/ha,100%
same,Pre-emergence action against CYPES,[16]; 80 g/ha,100%
same,Pre-emergence action against CYPES,[16]; 320 g/ha,100%
same,Pre-emergence action against MATIN,[17]; 20 g/ha,80%
same,Pre-emergence action against MATIN,[17]; 80 g/ha,90%
same,Pre-emergence action against MATIN,[17]; 320 g/ha,100%
same,Pre-emergence action against HORMU,[18]; 80 g/ha,80%
same,Pre-emergence action against HORMU,[18]; 320 g/ha,90%
same,Post-emergence action against STEME in %,[19]; 5 g/ha,100%
same,Post-emergence action against STEME in %,[19]; 20 g/ha,100%
same,Post-emergence action against STEME in %,[19]; 80 g/ha,100%
same,Pre-emergence action against POLCO,[20],80%
same,Post-emergence action against ALOMY,[21]; 5 g/ha,90%
same,Post-emergence action against ALOMY,[21]; 20 g/ha,100%
same,Post-emergence action against ALOMY,[21]; 80 g/ha,100%
same,Post-emergence action against LOLRI in %,[22]; 20 g/ha,90%
same,Post-emergence action against LOLRI in %,[22]; 80 g/ha,100%
same,Pre-emergence action against VIOTR,[23]; 20 g/ha,80%
same,Pre-emergence action against VIOTR,[23]; 80 g/ha,80%
same,Pre-emergence action against VIOTR,[23]; 320 g/ha,100%
same,Post-emergence action against ABUTH,[24]; 5 g/ha,100%
same,Post-emergence action against ABUTH,[24]; 20 g/ha,100%
same,Post-emergence action against ABUTH,[24]; 80 g/ha,100%
same,Post-emergence action against VIOTR in %,[25]; 5 g/ha,100%
same,Post-emergence action against VIOTR in %,[25]; 20 g/ha,100%
same,Post-emergence action against VIOTR in %,[25]; 80 g/ha,100%
same,Post-emergence action against CYPES in %,[26],90%
same,Post-emergence action against AMARE in %,[27]; 5 g/ha,100%
same,Post-emergence action against AMARE in %,[27]; 20 g/ha,100%
same,Post-emergence action against AMARE in %,[27]; 80 g/ha,100%
same,Post-emergence action against MATIN in %,[28]; 5 g/ha,90%
same,Post-emergence action against MATIN in %,[28]; 20 g/ha,100%
same,Post-emergence action against MATIN in %,[28]; 80 g/ha,100%
same,Post-emergence action against SETVI in %,[29]; 5 g/ha,100%
same,Post-emergence action against SETVI in %,[29]; 20 g/ha,100%
same,Post-emergence action against SETVI in %,[29]; 80 g/ha,100%
same,Pre-emergence action against VERPE,[30],100%

# Reference: US12599136B2, “Substituted isophthalic acid diamides and their use as herbicides” (Bayer Aktiengesellschaft, priority 2020, dated 2026)
